# Measurements: ChEMBL document CHEMBL1134815, “3,3a-Dihydropyrano[4,3,2-de]quinazolin-2(1H)-ones are potent non-nucleoside reverse transcriptase inhibitors” (Bioorg Med Chem Lett, 2001)
# Tests used:
# [1] = biological target: Human immunodeficiency virus type 1 reverse transcriptase (Human immunodeficiency virus 1, UniProt Q72547); test: Tested for inhibitory concentration against HIV-1 non-nucleoside reverse transcriptase
# [2] = system: Human immunodeficiency virus type 1 reverse transcriptase (Human immunodeficiency virus 1), Q72547 [K103N]
# Description: Inhibitory concentration against wild-type virus K103N and HIV-1 RT mutant in a whole cell antiviral assay
# [3] = biological target: Human immunodeficiency virus type 1 reverse transcriptase (Human immunodeficiency virus 1) (UniProt Q72547)
# Description: Inhibitory concentration against HIV-1 reverse transcriptase
# [4] = system: HIV-1 reverse transcriptase (Human immunodeficiency virus 1); test: Inhibitory concentration against wild-type virus K103N/[…] and HIV-1 RT double mutant in whole cell antiviral assay
# [5] = system: HIV-1 reverse transcriptase (Human immunodeficiency virus 1); test: Inhibitory concentration against wild-type virus K103N mutant in a whole cell antiviral assay
# [6] = system: HIV-1 reverse transcriptase (Human immunodeficiency virus 1); test: Inhibitory concentration against wild-type virus K103N/[…] and HIVdouble mutant in a whole cell antiviral assay
Structure (SMILES),IC50 [1] [nM],IC90 [2] [nM],IC90 [3] [nM],IC90 [4] [nM],IC90 [5] [nM],IC90 [6] [nM]
O=C1Nc2ccc(Cl)c3c2C(C(F)(F)F)(C=C(c2ccccc2)O3)N1 (stereo unspecified),244,46,8.2,1660,–,–
O=C1Nc2ccc(Cl)cc2[C@@](/C=C/C2CC2)(C(F)(F)F)N1,–,–,–,–,27,1690
Fc1ccc2c3c1S/C(=C\c1cccnc1)C3(C(F)(F)F)NC(S)=N2 (stereo unspecified),–,84,7,–,–,–
O=C1Nc2ccc(Cl)cc2C(C#Cc2ccccc2)(C(F)(F)F)N1 (stereo unspecified),–,7,–,–,–,–
COc1c(Cl)ccc2c1C(C#Cc1cccnc1)(C(F)(F)F)NC(=O)N2 (stereo unspecified),139,147,7.1,2540,–,–
COc1c(Cl)ccc2c1C(C#Cc1ccccc1)(C(F)(F)F)NC(=O)N2 (stereo unspecified),144,113,7.9,5520,–,–
COc1c(Cl)ccc2c1C(C#CC1CC1)(C(F)(F)F)NC(=O)N2 (stereo unspecified),70,7.5,3.5,–,–,–
O=C1Nc2ccc(Cl)c3c2C(C(F)(F)F)(C=C(c2cccnc2)O3)N1 (stereo unspecified),122,76,4.6,897,–,–
O=C1Nc2ccc(Cl)c(O)c2C(C#Cc2ccccc2)(C(F)(F)F)N1 (stereo unspecified),174,30,6.8,1940,–,–
O=C1Nc2ccc(Cl)c3c2C(C(F)(F)F)(C=C(C2CC2)O3)N1 (stereo unspecified),90,76,3.6,–,–,–
O=C1Nc2ccc(Cl)cc2[C@@](C#CC2CC2)(C(F)(F)F)N1,–,–,–,1100,–,–
O=C1Nc2ccc(Cl)c(O)c2C(C#CC2CC2)(C(F)(F)F)N1 (stereo unspecified),54,28,3.6,3020,–,–
